Among the data in patent publication US10385097B2, “Ether compounds for treatment of medical disorders” (Achillion Pharmaceuticals, Inc., priority 2015, dated 2019) are IC50 values, retold here.

A value given as a limit tells only on which side of the number the result lay.

The target in the first test is T1, Human Factor D (Homo sapiens, UniProt P00746).
T1 construct: purified from human serum; purchased Complement Technology, Inc; host or cells: human serum (natural protein, not recombinant)
T1 sequence (P00746 26-253): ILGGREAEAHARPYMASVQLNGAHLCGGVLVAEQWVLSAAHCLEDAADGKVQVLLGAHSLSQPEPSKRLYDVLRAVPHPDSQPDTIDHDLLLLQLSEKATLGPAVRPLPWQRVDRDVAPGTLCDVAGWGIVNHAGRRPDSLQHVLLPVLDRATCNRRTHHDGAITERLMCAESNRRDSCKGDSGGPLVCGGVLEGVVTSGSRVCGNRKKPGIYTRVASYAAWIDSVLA
The test can be described thus: Human Factor D Assay.
Conditions: not given
It is filed as biochemical. As to the method:
Example 8. Human Factor D Assay
Human Factor D (purified from human serum, Complement Technology, Inc.) at 80 nM final concentration is incubated with test compound at various concentrations for 5 minutes at room temperature in 50 mM Tris, 1M NaCl, pH 7.5. A synthetic substrate Z-L-Lys-SBzl and DTNB (Ellman's reagent) are added to final concentrations of 100 μM each. Absorbance at 405 nm (A405) is recorded at 30 second intervals for 30 minutes using a microplate spectrophotometer. IC50 values are calculated by nonlinear regression of complement Factor D reaction rates as a function of test compound concentration.
A word on the IC50: it is the concentration that gives 50% inhibition. In turn, `NC(=O)c1nn(CC(=O)N2C[C@H](F)C[C@H]2C(=O)Nc2cccc(-c3ccccc3Cl)c2F)c2ccc(Oc3cncnc3)cc12` [Compound 31, 1-(2-((2S,4R)-2-((2′-Chloro-2-fluoro-[1,1′-biphenyl]-3-yl)carbamoyl)-4-fluoropyrrolidin-1-yl)-2-oxoethyl)-5-(pyrimidin-5-yloxy)-1H-indazole-3-carboxamide] displayed an IC50 of less than 1 µM.

For the compound `CC(=O)c1cn(CC(=O)N2C[C@H](F)C[C@H]2C(=O)Nc2cccc(-c3ccccc3Cl)c2F)c2ccc(Oc3cnc(Cl)nc3)cc12` [Compound 43, (2S,4R)-1-(2-(3-acetyl-5-(2-chloropyrimidin-5-yloxy)-1H-indol-1-yl)acetyl)-N-(2′-chloro-2-fluorobiphenyl-3-yl)-4-fluoropyrrolidine-2-carboxamide], the IC50 is less than 1 µM.

Still in this test, the particulars now being: Table 1; Human Factor D 80 nM, substrate Z-L-Lys-SBzl; read-out: IC50.
For `CC(=O)c1cn(CC(=O)N2C[C@H](F)C[C@H]2C(=O)Nc2ccc(OC(F)(F)F)c(F)c2)c2cc(OCP(=O)(O)O)ccc12` [Compound 25, (3-acetyl-1-(2-((2S,4R)-4-fluoro-2-(3-fluoro-4-(trifluoromethoxy)phenylcarbamoyl)pyrrolidin-1-yl)-2-oxoethyl)-1H-indol-6-yloxy)methylphosphonic acid], the IC50 was less than 1 µM. The same measure, in the same setting: then `CC(=O)c1cn(CC(=O)N2C[C@H](F)C[C@H]2C(=O)Nc2cccc(Oc3ccccc3)c2)c2cc(OCP(=O)(O)O)ccc12` [Compound 26, (3-acetyl-1-(2-((2S,4R)-4-fluoro-2-(3-phenoxyphenylcarbamoyl)pyrrolidin-1-yl)-2-oxoethyl)-1H-indol-6-yloxy)methylphosphonic acid], with less than 1 µM; and `CC(=O)c1cn(CC(=O)N2C[C@H](F)C[C@H]2C(=O)Nc2cccc(OC(F)(F)F)c2F)c2cc(OCP(=O)(O)O)ccc12` [Compound 27, (3-acetyl-1-(2-((2S,4R)-4-fluoro-2-(2-fluoro-3-(trifluoromethoxy)phenylcarbamoyl)pyrrolidin-1-yl)-2-oxoethyl)-1H-indol-6-yloxy)methylphosphonic acid], with less than 1 µM; and `CC(C)(C)NS(=O)(=O)COc1ccc2c(C(N)=O)nn(CC(=O)N3C[C@H](F)C[C@H]3C(=O)Nc3cccc(-c4ccccc4Cl)c3F)c2c1` [Compound 28], with less than 1 µM. Still for that read-out and setting: then `NC(=O)c1nn(CC(=O)N2C[C@H](F)C[C@H]2C(=O)Nc2cccc(-c3ccccc3Cl)c2F)c2cc(OCS(N)(=O)=O)ccc12` [Compound 29], with less than 1 µM; and `CC(=O)c1cn(CC(=O)N2C[C@H](F)C[C@H]2C(=O)NCc2cccc(Cl)c2F)c2cc(Oc3ncccn3)ccc12` [Compound 30, (2S,4R)-1-(2-(3-Acetyl-6-(pyrimidin-2-yloxy)-1H-indol-1-yl)acetyl)-N-(3-chloro-2-fluorobenzyl)-4-fluoropyrrolidine-2-carboxamide], with less than 1 µM. As for `CC(=O)c1cn(CC(=O)N2C[C@H](F)C[C@H]2C(=O)Nc2cccc(-c3ccccc3Cl)c2F)c2cc(Oc3ncccn3)ccc12` [Compound 32, (2S,4R)-1-(2-(3-Acetyl-6-(pyrimidin-2-yloxy)-1H-indol-1-yl)acetyl)-N-(2′-chloro-2-fluoro-[1,1′-biphenyl]-3-yl)-4-fluoropyrrolidine-2-carboxamide], the IC50 was less than 1 µM.

Regarding `CC(=O)c1cn(CC(=O)N2C[C@H](F)C[C@H]2C(=O)Nc2cccc(-c3ccccc3Cl)c2F)c2ccc(Oc3ncc(Br)cn3)cc12` [Compound 33, (2S,4R)-1-(2-(3-Acetyl-5-((5-bromopyrimidin-2-yl)oxy)-1H-indol-1-yl)acetyl)-N-(2′-chloro-2-fluoro-[1,1′-biphenyl]-3-yl)-4-fluoropyrrolidine-2-carboxamide], the IC50 was less than 1 µM. On the same count and under the same terms, then `CC(=O)c1cn(CC(=O)N2[C@@H]3C[C@@H]3C[C@H]2C(=O)Nc2cccc(-c3ccccc3Cl)c2F)c2ccc(Oc3ncc(Br)cn3)cc12` [Compound 34, (1R,3S,5R)-2-(2-(3-Acetyl-5-((5-bromopyrimidin-2-yl)oxy)-1H-indol-1-yl)acetyl)-N-(2′-chloro-2-fluoro-[1,1′-biphenyl]-3-yl)-2-azabicyclo[3.1.0]hexane-3-carboxamide], with less than 1 µM; and `CC(=O)c1cn(CC(=O)N2C[C@H](F)C[C@H]2C(=O)Nc2cccc(Br)n2)c2ccc(Oc3ncc(Br)cn3)cc12` [Compound 35, (2S,4R)-1-(2-(3-acetyl-5-(5-bromopyrimidin-2-yloxy)-1H-indol-1-yl)acetyl)-N-(6-bromopyridin-2-yl)-4-fluoropyrrolidine-2-carboxamide], with less than 1 µM; and `CC(=O)c1cn(CC(=O)N2C[C@H](F)C[C@H]2C(=O)Nc2cccc(-c3ccccc3Cl)c2F)c2ccc(Oc3cnc(C#N)nc3)cc12` [Compound 36, (2S,4R)-1-(2-(3-acetyl-5-(2-cyanopyrimidin-5-yloxy)-1H-indol-1-yl)acetyl)-N-(2′-chloro-2-fluorobiphenyl-3-yl)-4-fluoropyrrolidine-2-carboxamide], with less than 1 µM.

As to `CC(=O)c1cn(CC(=O)N2C[C@H](F)C[C@H]2C(=O)Nc2cccc(-c3ccccc3Cl)c2F)c2ccc(Oc3ncc(F)cn3)cc12` [Compound 37, (2S,4R)-1-(2-(3-acetyl-5-(5-fluoropyrimidin-2-yloxy)-1H-indol-1-yl)acetyl)-N-(2′-chloro-2-fluorobiphenyl-3-yl)-4-fluoropyrrolidine-2-carboxamide], the IC50 is less than 1 µM.

In the case of `CC(=O)c1cn(CC(=O)N2C[C@H](F)C[C@H]2C(=O)Nc2cccc(-c3ccccc3Cl)c2F)c2ccc(Oc3ncccn3)cc12` [Compound 38, (2S,4R)-1-(2-(3-acetyl-5-(pyrimidin-2-yloxy)-1H-indol-1-yl)acetyl)-N-(2′-chloro-2-fluorobiphenyl-3-yl)-4-fluoropyrrolidine-2-carboxamide], the 50% inhibitory concentration (IC50) is less than 1 µM.

Consider `CC(=O)c1cn(CC(=O)N2C[C@H](F)C[C@H]2C(=O)Nc2cccc(Br)n2)c2ccc(Oc3ncccn3)cc12` [Compound 39, (2S,4R)-1-(2-(3-acetyl-5-(pyrimidin-2-yloxy)-1H-indol-1-yl)acetyl)-N-(6-bromopyridin-2-yl)-4-fluoropyrrolidine-2-carboxamide], for which the IC50 was less than 1 µM. The same measure, in the same setting: then `CC(=O)c1cn(CC(=O)N2C[C@H](F)C[C@H]2C(=O)Nc2cccc(-c3ccccc3Cl)c2F)c2ccc(Oc3ncc(C)cn3)cc12` [Compound 40, (2S,4R)-1-(2-(3-acetyl-5-(5-methylpyrimidin-2-yloxy)-1H-indol-1-yl)acetyl)-N-(2′-chloro-2-fluorobiphenyl-3-yl)-4-fluoropyrrolidine-2-carboxamide], with less than 1 µM. For the compound `CC(=O)c1cn(CC(=O)N2C[C@H](F)C[C@H]2C(=O)Nc2cccc(Br)n2)c2ccc(Oc3ncc(C)cn3)cc12` [Compound 41, (2S,4R)-1-(2-(3-acetyl-5-(5-methylpyrimidin-2-yloxy)-1H-indol-1-yl)acetyl)-N-(6-bromopyridin-2-yl)-4-fluoropyrrolidine-2-carboxamide], the IC50 was less than 1 µM.

As to `CC(=O)c1cn(CC(=O)N2C[C@H](F)C[C@H]2C(=O)Nc2cccc(-c3ccccc3Cl)c2F)c2ccc(Oc3ncc(C(F)(F)F)cn3)cc12` [Compound 42, (2S,4R)-1-(2-(3-acetyl-5-(5-(trifluoromethyl)pyrimidin-2-yloxy)-1H-indol-1-yl)acetyl)-N-(2′-chloro-2-fluorobiphenyl-3-yl)-4-fluoropyrrolidine-2-carboxamide], the half-maximal inhibitory concentration (IC50) was less than 1 µM.
